Reference: patent US20170354726A1, “CANCER PEPTIDE VACCINE” (Green Peptide Co., Ltd., priority 2010, published 2017)
Ends that are not written are not given here.

Tests used:
Type in all cases: in vivo, human
[1] = tested on: CTL in PBMC of HRPC patients, HLA-A24 positive target cells presenting the administered peptide; experiment: Measurement of CTL activity (IFN-γ) in PBMC of HRPC patients; details: for reactivity of CTL (and antibody) to the peptide, in words: HRPC patients; for IFN post average/average no. of times of administration / CTL (IFN) Post Average: prostate cancer; for CTL (IFN) Post Average: patients given this peptide
Experimental: (§1) PBMC was separated from the peripheral blood obtained by blood collection at the start of administration and at the end of each course for lyophilization, and CTL activity was measured using all PBMC by a known method (Hida N, Maeda Y, Katagiri K, Takasu H, Harada M, Itoh K., A simple culture protocol to detect peptide-specific cytotoxic T lymphocyte precursors in circulation. Cancer Immunol Immunotherapy 2002; 51: 219-228 (incorporated herein by reference)) after the end of administration. First, PBMC was cultured in the presence of each administered peptide for 2 weeks, and the PBMC was co-cultured with HLA-A24 positive target cells presenting the administered peptide via HLA molecules. Then, CTL activity was measured by measuring IFN-γ secreted into the culture supernatant by the reaction of CTL in PBMC with the target cells. The co-culture was performed under 4 independent conditions for each peptide; 4 values were obtained for each peptide for each PBMC obtained by each blood collection; and the total of the 4 values was used as a value (pg/mL) of IFN-γ for analysis to be described later.
(§2) For HRPC patients, the average of IFN-γ values or FIU was calculated in the 1 mg administration group (level I), the 3 mg administration group (level II), and the 5 mg administration group (level III) to analyze the relationship between the dose and the immunological response.
(§3) For HRPC patients, the averages of IFN-γ values and FIU obtained from the plasma or PBMC obtained at the end of each course from before administration to the 6th course were calculated in the 1 mg administration group and the group of administration of 3 mg or more to analyze the relationship between the number of times of administration and the immunological response. The “Number of times of administration” in the table and the figure is the total number of times of administration at the end of each course, and the number of times of administration per course is 6.
Since the initial peptide reselection was performed at the end of the 1st course, the averages of measurements after the reselection (values measured at the end of the 2nd course and later) are shown in the table and the figure. The “Number of times of administration” in the table and the figure is the total number of times of administration at the end of each course, and the number of times of administration per course is 6.

[2] = tested on: CTL in PBMC of glioblastoma patients, HLA-A24 positive target cells presenting the administered peptide; experiment: Measurement of CTL activity (IFN-γ) in PBMC of glioblastoma patients; details: brain tumor; for CTL (IFN) Post Average: patients given this peptide
Experimental: as §1
(§4) Similarly, for glioblastoma patients, the average of IFN-γ values or FIU was calculated in the 1 mg administration group (level I) and the 3 mg administration group (level II) to analyze the relationship between the dose and the immunological response.
(§5) Similarly, for glioblastoma patients, the averages of IFN-γ values and FIU obtained from the plasma or PBMC obtained at the end of each course from before administration to the 2nd course were calculated in the 1 mg administration group (level I) and the group of administration of 3 mg or more (level II) to analyze the relationship between the number of times of administration and the immunological response. The “Number of times of administration” in the table and the figure is the total number of times of administration at the end of each course, and the number of times of administration per course is 6.

[3] = tested on: antibody to a peptide in the peripheral blood of HRPC patients; experiment: Antibody to peptide in plasma (FIU, Luminex) of HRPC patients; details: prostate cancer, patients given this peptide
Experimental: (§6) More specifically, a carrier was prepared in which each peptide was immobilized on the surface of micro beads (Luminex Corporation) after dissolving the powdered peptide in DMSO. Subsequently, plasma (heparin blood) obtained by blood collection from the patient was mixed with the immobilized carrier to react the antibody contained in the plasma with the peptide immobilized on the carrier. Then, the immobilized carrier was recovered after reaction; the antibody in the peripheral blood of the patient, bound to the peptide on the support was fluorescently labeled using a biotinylated anti-human antibody (Vector Corporation) and an avidinylated fluorescent dye (Streptavidin-PE, Invitrogen Corporation); and the fluorescence intensity (FIU) thereof was measured.
as §2, §3

[4] = tested on: antibody to a peptide in the peripheral blood of glioblastoma patients; experiment: Antibody to peptide in plasma (FIU, Luminex) of glioblastoma patients; details: brain tumor, patients given this peptide
Experimental: as §6, with “An antibody to a peptide in the peripheral blood of patient was measured using a multiplex technology provided by Luminex Corporation by a method as described in Japanese Patent No. 3960614 (incorporated herein by reference) using each of the powdered peptides of SEQ ID NOS: 1 to 14. More” for “More”
as §4, §5

Sequence	reactivity of CTL (and antibody) to the peptide, in words [1]	IFN post average/average no. of times of administration [1]	CTL (IFN) Post Average [1]	IFN post average/average no. of times of administration [2]	CTL (IFN) Post Average [2]	Ab Post Average (FIU after peptide administration) [3]	Ab Post Average (FIU after peptide administration) [4]
AYDFLYNYL [GP-113]	low values of CTL activation	67	600 pg/mL	357	5,139 pg/mL	207 FIU	67 FIU
DYLRSVLEDF [GP-105]	–	229	5,274 pg/mL	180	2,706 pg/mL	13,096 FIU	3,969 FIU
DYSARWNEI [GP-112]	low values of CTL activation	76	459 pg/mL	92	1,308 pg/mL	53 FIU	1,338 FIU
DYVREHKDNI [GP-101]	lower in the CTL reactivity than other peptides	7	129 pg/mL	–	–	16,491 FIU	–
HYRKWIKDTI [GP-109]	lowly increased the CTL activity	22	494 pg/mL	–	–	11,672 FIU	–
HYTNASDGL [GP-103]	did not increase the reactivity of antibody and CTL	8	100 pg/mL	–	–	22 FIU	–
LYAWEPSFL [GP-106]	–	841	22,699 pg/mL	174	3,134 pg/mL	20,080 FIU	297 FIU
LYCESVHNF [GP-108]	–	72	2,209 pg/mL	–	–	19,039 FIU	–
NYSVRYRPGL [GP-107]	lowly increased the CTL activity	27	370 pg/mL	8	151 pg/mL	2,888 FIU	302 FIU
RYLTQETNKV [GP-111]	–	207	5,576 pg/mL	400	3,001 pg/mL	11,125 FIU	241 FIU
TFDYLRSVL [GP-104]	–	144	3,629 pg/mL	187	2,986 pg/mL	11,538 FIU	920 FIU
TYSVSFDSL [GP-110]	increased the CTL value	365	2,190 pg/mL	–	–	310 FIU	–
VYDYNCHVDL [GP-114]	–	547	4,592 pg/mL	82	821 pg/mL	10,557 FIU	297 FIU
